Drawing on BindingDB's records for doi:10.1124/jpet.105.084343 (University of Rochester, 2005), this text covers Ki for two molecules.

For test [1], the target named is Delta-type opioid receptor (Homo sapiens, UniProt P41143).
The target of a further test is Mu-type opioid receptor (Homo sapiens, UniProt P35372).
The target in test [2] is Kappa-type opioid receptor (Homo sapiens, UniProt P41145).
Sequence of Kappa-type opioid receptor (P41145 whole entry): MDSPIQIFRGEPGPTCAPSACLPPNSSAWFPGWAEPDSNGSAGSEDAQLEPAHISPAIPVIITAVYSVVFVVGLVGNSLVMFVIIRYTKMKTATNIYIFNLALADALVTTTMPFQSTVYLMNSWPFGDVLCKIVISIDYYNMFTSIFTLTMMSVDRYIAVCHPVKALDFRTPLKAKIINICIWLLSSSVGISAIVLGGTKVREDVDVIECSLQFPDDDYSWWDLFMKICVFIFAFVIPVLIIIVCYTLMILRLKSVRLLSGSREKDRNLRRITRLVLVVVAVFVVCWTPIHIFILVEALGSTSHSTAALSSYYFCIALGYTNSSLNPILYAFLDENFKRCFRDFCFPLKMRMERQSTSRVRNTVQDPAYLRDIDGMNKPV

Sequence of Mu-type opioid receptor (P35372 whole entry): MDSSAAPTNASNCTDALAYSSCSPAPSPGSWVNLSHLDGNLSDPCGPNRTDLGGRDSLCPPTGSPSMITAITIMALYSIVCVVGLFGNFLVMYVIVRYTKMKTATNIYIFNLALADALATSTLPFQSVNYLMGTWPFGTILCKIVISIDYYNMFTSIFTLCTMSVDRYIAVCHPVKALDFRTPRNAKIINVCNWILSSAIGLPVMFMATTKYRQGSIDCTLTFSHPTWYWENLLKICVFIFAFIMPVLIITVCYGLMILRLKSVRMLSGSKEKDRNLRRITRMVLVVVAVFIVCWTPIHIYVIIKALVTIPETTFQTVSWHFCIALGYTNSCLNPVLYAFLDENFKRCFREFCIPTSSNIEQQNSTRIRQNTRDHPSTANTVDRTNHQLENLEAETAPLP
Sequence of Delta-type opioid receptor (P41143 whole entry): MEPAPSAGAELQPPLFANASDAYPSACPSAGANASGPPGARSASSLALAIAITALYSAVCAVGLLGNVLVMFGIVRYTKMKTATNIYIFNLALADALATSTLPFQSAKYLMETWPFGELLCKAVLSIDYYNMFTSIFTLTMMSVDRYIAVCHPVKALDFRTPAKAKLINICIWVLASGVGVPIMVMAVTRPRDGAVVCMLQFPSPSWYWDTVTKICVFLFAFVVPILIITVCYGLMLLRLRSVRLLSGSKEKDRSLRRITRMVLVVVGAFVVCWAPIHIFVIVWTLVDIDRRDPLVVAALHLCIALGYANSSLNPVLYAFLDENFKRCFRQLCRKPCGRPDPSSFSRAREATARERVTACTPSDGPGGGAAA

Usually Ki stands for the equilibrium dissociation constant of an inhibitor or competing ligand from its target. Read a high Ki as lower affinity. In the case of `O=C(/C=C/C(=O)Oc1ccc2c(c1)[C@]13CCCCC1[C@H](C2)N(CC1CCC1)CC3)Oc1ccc2c(c1)[C@]13CCCCC1[C@H](C2)N(CC1CCC1)CC3` (some centres undefined) [MCL-145], the inhibitory constant (Ki) in test [1] was determined as 9400 nM; on Mu-type opioid receptor, 200 nM; in test [2] it was 78 nM.

As to `Oc1ccc2c(c1)[C@@]13CCCC[C@H]1C(C2)N(CC1CCC1)CC3` [MCL-101], the Ki in test [2] amounted to 79 nM.
